# Like-named read-outs stand apart in the source and are kept apart here. Positions of bridges follow the written chain, without caps; N, C: chain ends. Non-standard residues stand in square brackets, D forms with d. Residues, ends and D or L forms follow the SMILES beside them. ξ: configuration not given here. Phe(3,4,5-F3) = N[C@@H](Cc1cc(F)c(F)c(F)c1)C(=O)O; Phe(4-tBu) = CC(C)(C)c1ccc(C[C@H](N)C(=O)O)cc1; Pro(5S-Me) = C[C@H]1CC[C@@H](C(=O)O)N1; Bta = N[C@@H](Cc1csc2ccccc12)C(=O)O; Hyp = O=C(O)[C@@H]1C[C@@H](O)CN1; NMeF = CN[C@@H](Cc1ccccc1)C(=O)O; NMeNle = CCCC[C@H](NC)C(=O)O; NMeS = CN[C@@H](CO)C(=O)O; Pip = O=C(O)[C@@H]1CCCCN1; NMeA = CN[C@@H](C)C(=O)O; Orn = NCCC[C@H](N)C(=O)O; Dab = NCC[C@H](N)C(=O)O; Dap = NC[C@H](N)C(=O)O; ξC = NC(CS)C(=O)O; Sar = CNCC(=O)O
# Key:
# Human PD-L1/PD-1 = biological target: T1, Human PD-L1/PD-1 (Homo sapiens, UniProt Q9NZQ7); experiment: HTRF PD-1-Ig/PD-L1-His binding assay (human PD-L1); details: cluster symbol; read-out: HTRF IC50 cluster
# T1 construct: made in house; host or cells: HEK293T
# T1 sequence (Q9NZQ7 with tags, fused parts or gaps): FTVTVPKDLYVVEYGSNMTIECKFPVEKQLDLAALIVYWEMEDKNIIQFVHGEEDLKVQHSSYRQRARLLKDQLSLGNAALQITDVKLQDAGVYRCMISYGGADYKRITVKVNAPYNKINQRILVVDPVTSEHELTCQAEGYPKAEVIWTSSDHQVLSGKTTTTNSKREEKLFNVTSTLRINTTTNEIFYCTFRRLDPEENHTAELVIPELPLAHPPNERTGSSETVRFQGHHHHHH
# Summary of the method: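 Steps: truncated PD-1-Ig and PD-L1-His fusions are incubated in dPBS containing 0.1% (w/v) BSA and 0.05% (v/v) Tween-20. Detection antibodies are then added (Eu cryptate anti-Ig at 1 nM final, APC anti-His at 20 nM final), and time-resolved FRET is measured.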
# [1] = biological target: T2, LK35.2-hPD-L1 cells / PE-labeled PD-1-Ig (Homo sapiens, UniProt Q9NZQ7); experiment: LK35.2-hPD-L1 cell binding high-content screening assay; type: cell-based; details: cluster symbol, read-out: CBA IC50 cluster
# T2 construct: expressed in transfected cells; host or cells: LK35.2 mouse B cell line
# T2 sequence (Q9NZQ7 19-290): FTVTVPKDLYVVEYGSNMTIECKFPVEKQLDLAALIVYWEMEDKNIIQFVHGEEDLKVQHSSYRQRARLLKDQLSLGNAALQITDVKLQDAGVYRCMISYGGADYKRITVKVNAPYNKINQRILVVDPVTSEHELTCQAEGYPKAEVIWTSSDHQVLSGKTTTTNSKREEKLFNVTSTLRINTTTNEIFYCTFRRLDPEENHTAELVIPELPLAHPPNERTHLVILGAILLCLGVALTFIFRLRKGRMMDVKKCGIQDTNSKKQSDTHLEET
# Summary of the method: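 Fluorescent PD-1-Ig binding to PD-L1-expressing LK35.2 cells, imaged after washing. Conditions: 1 nM PE-PD-1-Ig, 37 °C, 1 h, RPMI with 10% fetal calf serum.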
# [2] = cell binding assay, cell line not given
# [3] = cell line of CBA not given (LK35.2-hPD-L1 or 293T-hPD-L1)
SMILES,IC50 (Human PD-L1/PD-1) [nM],"IC50 [1, 2] [nM]","IC50 [1, 3] [nM]"
CCCC[C@H]1C(=O)N2CCC[C@@H]2C(=O)N[C@@H](CCCN)C(=O)N[C@H](C(=O)NCC(N)=O)CSCC(=O)N[C@@H](Cc2ccc(O)cc2)C(=O)N(C)[C@@H](C)C(=O)N[C@@H](CC(N)=O)C(=O)N2CCC[C@H]2C(=O)N[C@@H](Cc2cnc[nH]2)C(=O)N[C@@H](CC(C)C)C(=O)N2CCC[C@H]2C(=O)N[C@@H](Cc2c[nH]c3ccccc23)C(=O)N[C@@H](CO)C(=O)N[C@@H](Cc2csc3ccccc23)C(=O)N1C [Example 5010] ({CH2CO}-Y[NMeA]NPHLPWS[Bta][NMeNle][dP][Orn]CG-NH2; thioether N-14),6.76 to 30.3,4.78 to 72.9,
C=CCCCCC[C@H]1C(=O)N(C)[C@@H](CCCCCC=C)C(=O)N[C@@H](CCCNC(=N)N)C(=O)N[C@H](C(=O)NCC(N)=O)CSCC(=O)N[C@@H](Cc2ccccc2)C(=O)N(C)[C@@H](C)C(=O)N[C@@H](CC(N)=O)C(=O)N2CCC[C@H]2C(=O)N[C@@H](Cc2cnc[nH]2)C(=O)N[C@@H](CC(C)C)C(=O)N(C)CC(=O)N[C@@H](Cc2c[nH]c3ccccc23)C(=O)N[C@@H](CO)C(=O)N[C@@H](Cc2c[nH]c3ccccc23)C(=O)N1C [Example 1047],> 30.5,,> 74.3
CCCC[C@H]1C(=O)N(C)[C@@H](CCCC)C(=O)N[C@@H](CCCNC(=N)N)C(=O)N[C@H](C(=O)NCC(N)=O)CSCC(=O)N[C@@H](Cc2ccc(C(C)(C)C)cc2)C(=O)N(C)[C@@H](C)C(=O)N[C@@H](CC(N)=O)C(=O)N2CCC[C@H]2C(=O)N[C@@H](CN)C(=O)N[C@@H](CC(C)C)C(=O)N2C[C@H](O)C[C@H]2C(=O)N[C@@H](Cc2c[nH]c3ccccc23)C(=O)N[C@@H](CO)C(=O)N[C@@H](Cc2c[nH]c3ccccc23)C(=O)N1C [Example 7036] ({CH2CO}-[Phe(4-tBu)][NMeA]NP[Dap]L[Hyp]WSW[NMeNle][NMeNle]RCG-NH2; thioether N-14),6.76 to 30.3,> 74.3,
CCCC[C@H]1C(=O)N(C)[C@@H](CCCC)C(=O)N[C@@H](CCCN)C(=O)N[C@H](C(=O)NCC(N)=O)CSCC(=O)N[C@@H](Cc2ccc(O)cc2)C(=O)N(C)[C@@H](C)C(=O)N[C@@H](CC(=O)O)C(=O)N2CCC[C@H]2C(=O)N[C@@H](CN)C(=O)N[C@@H](CC(=O)O)C(=O)N2C[C@H](O)C[C@H]2C(=O)N[C@@H](Cc2c[nH]c3ccccc23)C(=O)N[C@@H](CCN)C(=O)N[C@@H](Cc2csc3ccccc23)C(=O)N1C [Example 1184] ({CH2CO}-Y[NMeA]DP[Dap]D[Hyp]W[Dab][Bta][NMeNle][NMeNle][Orn]CG-NH2; thioether N-14),0.385 to 6.74,,0.158 to 4.71
CCCC[C@H]1C(=O)N(C)[C@@H](CCCC)C(=O)N[C@@H](CCCNC(=N)N)C(=O)N[C@H](C(=O)NCC(=O)NCC(=O)NCC(N)=O)CSCC(=O)N[C@@H](Cc2ccc(O)cc2)C(=O)N(C)[C@@H](C)C(=O)N[C@@H](CC(N)=O)C(=O)N2CCC[C@H]2C(=O)N[C@@H](Cc2cnc[nH]2)C(=O)N[C@@H](CC(C)C)C(=O)N2CCC[C@H]2C(=O)N[C@@H](Cc2c[nH]c3ccccc23)C(=O)N[C@@H](CO)C(=O)N[C@@H](Cc2c[nH]c3ccccc23)C(=O)N1C [Example 6020] ({CH2CO}-Y[NMeA]NPHLPWSW[NMeNle][NMeNle]RCGGG-NH2; thioether N-14),0.385 to 6.74,0.158 to 4.71,
CCCC[C@H]1C(=O)N(C)[C@@H](CCCC)C(=O)N[C@@H](CCCNC(=N)N)C(=O)NC(C(=O)N[C@@H](CO)C(N)=O)CSCC(=O)N[C@@H](Cc2ccc(O)cc2)C(=O)N(C)[C@@H](C)C(=O)N[C@@H](CC(N)=O)C(=O)N2CCC[C@H]2C(=O)N[C@@H](Cc2cnc[nH]2)C(=O)N[C@@H](CO)C(=O)N2C[C@H](O)C[C@H]2C(=O)N[C@@H](Cc2c[nH]c3ccccc23)C(=O)N[C@@H](CO)C(=O)N[C@@H](Cc2c[nH]c3ccccc23)C(=O)N1C (stereo partly shown) [Example 9079] ({CH2CO}-Y[NMeA]NPHS[Hyp]WSW[NMeNle][NMeNle]R[ξC]S-NH2; thioether N-14),0.385 to 6.74,4.78 to 72.9,
CCCC[C@H]1C(=O)N(C)[C@@H](CCCC)C(=O)N[C@@H](CCCN)C(=O)N[C@H](C(=O)NCC(N)=O)CSCC(=O)N[C@@H](Cc2ccc(O)cc2)C(=O)N2CCCC[C@H]2C(=O)N[C@@H](CC(=O)O)C(=O)N2CCC[C@H]2C(=O)N[C@@H](CN)C(=O)N[C@@H](CC(C)C)C(=O)N2C[C@H](O)C[C@H]2C(=O)N[C@@H](Cc2c[nH]c3ccccc23)C(=O)N[C@@H](CO)C(=O)N[C@@H](Cc2c[nH]c3ccccc23)C(=O)N1C [Example 1235] ({CH2CO}-Y[Pip]DP[Dap]L[Hyp]WSW[NMeNle][NMeNle][Orn]CG-NH2; thioether N-14),6.76 to 30.3,,0.158 to 4.71
"CCCC[C@H]1C(=O)N(C)CC(=O)N[C@@H](CC(N)=O)C(=O)N[C@@H](C(C)C)C(=O)N(C)[C@@H](Cc2ccccc2)C(=O)N[C@@H](Cc2ccc(O)cc2)C(=O)N(C)CC(=O)N[C@@H](Cc2c[nH]c3ccccc23)C(=O)N[C@@H](Cc2ccc(O)cc2)C(=O)N[C@@H](CCCN)C(=O)N[C@H](C(=O)NCC(N)=O)CSCC(=O)N[C@@H](Cc2cc(F)c(F)c(F)c2)C(=O)N(C)[C@@H](Cc2ccccc2)C(=O)N1C [Example 3181] ({CH2CO}-[Phe(3,4,5-F3)][NMeF][NMeNle][Sar]NV[NMeF]Y[Sar]WY[Orn]CG-NH2; thioether N-13)",0.385 to 6.74,,0.158 to 4.71
CCCC[C@H]1C(=O)N(C)[C@@H](CCCC)C(=O)N[C@@H](CCCNC(=N)N)C(=O)N[C@H](C(=O)NCC(N)=O)CSCC(=O)N[C@@H](Cc2ccc(O)cc2)C(=O)N(C)[C@@H](C)C(=O)N[C@@H](CC(N)=O)C(=O)N2CCC[C@H]2C(=O)N[C@@H](Cc2cnc[nH]2)C(=O)N[C@@H](CC(C)C)C(=O)N2C[C@H](O)C[C@H]2C(=O)N[C@@H](Cc2c[nH]c3ccccc23)C(=O)N[C@@H](CCCN)C(=O)N[C@@H](Cc2c[nH]c3ccccc23)C(=O)N1C [Example 1133] ({CH2CO}-Y[NMeA]NPHL[Hyp]W[Orn]W[NMeNle][NMeNle]RCG-NH2; thioether N-14),6.76 to 30.3,,0.158 to 4.71
CCCC[C@H]1C(=O)N(C)[C@@H](CO)C(=O)N[C@@H](CCCNC(=N)N)C(=O)NC(C(=O)NCC(N)=O)CSCC(=O)N[C@@H](Cc2ccc(O)cc2)C(=O)N(C)[C@@H](C)C(=O)N[C@@H](CC(N)=O)C(=O)N2CCC[C@H]2C(=O)N[C@@H](Cc2cnc[nH]2)C(=O)N[C@@H](CC(C)C)C(=O)N2CCC[C@H]2C(=O)N[C@@H](Cc2c[nH]c3ccccc23)C(=O)N[C@@H](CO)C(=O)N[C@@H](Cc2c[nH]c3ccccc23)C(=O)N1C (stereo partly shown) [Example 9032] ({CH2CO}-Y[NMeA]NPHLPWSW[NMeNle][NMeS]R[ξC]G-NH2; thioether N-14),6.76 to 30.3,4.78 to 72.9,
CCCC[C@H]1C(=O)N(C)[C@@H](CCCC)C(=O)N[C@@H](CCCNC(=N)N)C(=O)NC(C(=O)NCC(N)=O)CSCC(=O)N[C@@H](Cc2ccc(O)cc2)C(=O)N(C)[C@@H](C)C(=O)N[C@@H](CC(N)=O)C(=O)N2CCC[C@H]2C(=O)N[C@@H](Cc2cnc[nH]2)C(=O)N[C@@H](CC(C)C)C(=O)N2[C@@H](C)CC[C@H]2C(=O)N[C@@H](Cc2c[nH]c3ccccc23)C(=O)N[C@@H](CO)C(=O)N[C@@H](Cc2csc3ccccc23)C(=O)N1C (stereo partly drawn) [Example 9015] ({CH2CO}-Y[NMeA]NPHL[Pro(5S-Me)]WS[Bta][NMeNle][NMeNle]R[ξC]G-NH2; thioether N-14),6.76 to 30.3,0.158 to 4.71,
CCCC[C@H]1C(=O)N(C)[C@@H](CCCC)C(=O)N[C@@H](C)C(=O)N[C@H](C(=O)NCC(N)=O)CSCC(=O)N[C@@H](Cc2ccc(O)cc2)C(=O)N(C)[C@@H](C)C(=O)N[C@@H](CC(=O)O)C(=O)N2CCC[C@H]2C(=O)N[C@@H](CN)C(=O)N[C@@H](CC(C)C)C(=O)N2C[C@H](O)C[C@H]2C(=O)N[C@@H](Cc2c[nH]c3ccccc23)C(=O)N[C@@H](CO)C(=O)N[C@@H](Cc2c[nH]c3ccccc23)C(=O)N1C [Example 1138] ({CH2CO}-Y[NMeA]DP[Dap]L[Hyp]WSW[NMeNle][NMeNle]ACG-NH2; thioether N-14),6.76 to 30.3,,0.158 to 4.71
CCCC[C@H]1C(=O)N(C)[C@@H](CCCC)C(=O)N[C@@H](CCCCN)C(=O)N[C@H](C(=O)NCC(N)=O)CSCC(=O)N[C@@H](Cc2ccc(O)cc2)C(=O)N(C)[C@@H](C)C(=O)N[C@@H](CC(N)=O)C(=O)N2CCC[C@H]2C(=O)N[C@@H](Cc2cnc[nH]2)C(=O)N[C@@H](CC(C)C)C(=O)N2CCC[C@H]2C(=O)N[C@@H](Cc2c[nH]c3ccccc23)C(=O)N[C@@H](CO)C(=O)N[C@@H](Cc2csc3ccccc23)C(=O)N1C [Example 1041] ({CH2CO}-Y[NMeA]NPHLPWS[Bta][NMeNle][NMeNle]KCG-NH2; thioether N-14),6.76 to 30.3,,0.158 to 4.71
CCCC[C@H]1C(=O)N(C)[C@@H](CCCC)C(=O)N[C@@H](CCCNC(=N)N)C(=O)N[C@H](C(=O)NCC(N)=O)CSCC(=O)N[C@@H](Cc2ccccc2)C(=O)N(C)[C@@H](C)C(=O)N[C@@H](CC(N)=O)C(=O)N2CCC[C@H]2C(=O)N[C@@H](CC(=O)O)C(=O)N[C@@H](CC(C)C)C(=O)N(C)CC(=O)N[C@@H](Cc2c[nH]c3ccccc23)C(=O)N[C@@H](CO)C(=O)N[C@@H](Cc2c[nH]c3ccccc23)C(=O)N1C [Example 1064] ({CH2CO}-F[NMeA]NPDL[Sar]WSW[NMeNle][NMeNle]RCG-NH2; thioether N-14),> 30.5,,> 74.3
